This data set in a line: Evaluation of triphenylamine derivative solubility in tetrahydrofuran. The class given is physicochemical. The following applies: for Solubility: tetrahydrofuran, 25° C., {100/(100+W)}×100; for solubility in a solvent used for photosensitive layer formation (in words): as shown by Table 1. Here is the method: Solubility of each of the triphenylamine derivatives (HT-1) to (HT-8), (HT-A), and (HT-B) was evaluated. More specifically, solubility of the obtained triphenylamine derivative was evaluated by calculating percentage solubility according to the following method. In the method, a small amount of tetrahydrofuran was added to 100 mg of the triphenylamine derivative at 25° C. Next, the mixture was shaken and left to stand, and the above steps were repeated in order to find an additive amount W (mg) of tetrahydrofuran for which solubility of the triphenylamine derivative was saturated. The additive amount W was used to calculate the percentage solubility according to equation (1) shown below. […] Solubility (%)={100/(100+W)}×100 Equation (1): […]

Regarding `C(/C=C/c1ccc(N(c2ccc(-c3ccc(N(c4ccc(/C=C/C=C/c5ccccc5)cc4)c4ccccc4-c4ccccc4)cc3)cc2)c2ccccc2-c2ccccc2)cc1)=C\c1ccccc1` [HT-8], the Solubility is on record as 12%.

`C(/C=C/c1ccc(N(c2ccccc2)c2ccc(-c3ccc(N(c4ccccc4)c4ccc(/C=C/C=C/c5ccccc5)cc4)cc3)cc2)cc1)=C\c1ccccc1` [HT-A, reference compound]: the “solubility in a solvent used for photosensitive layer formation (in words)” value is listed as “poor solubility” and the Solubility result is “≦1%”.

As to `Cc1ccc(N(c2ccc(/C=C/C=C/c3ccccc3)cc2)c2ccc(-c3ccc(N(c4ccc(/C=C/C=C/c5ccccc5)cc4)c4ccc(C)cc4C)cc3)cc2)c(C)c1` [HT-7], the Solubility is listed as 14%.

`CCc1cccc(C)c1N(c1ccc(/C=C/C=C/c2ccccc2)cc1)c1ccc(-c2ccc(N(c3ccc(/C=C/C=C/c4ccccc4)cc3)c3c(C)cccc3CC)cc2)cc1` [HT-1] returned a Solubility of 12%.

`CCc1cccc(C)c1N(c1ccc(/C=C/C=C/c2cccc(OC)c2)cc1)c1ccc(-c2ccc(N(c3ccc(/C=C/C=C/c4cccc(OC)c4)cc3)c3c(CC)cccc3OC)cc2)cc1` [HT-5] displayed a Solubility of 18%.

As for `Cc1cccc(N(c2ccc(/C=C/C=C/c3ccccc3)cc2)c2ccc(-c3ccc(N(c4ccc(/C=C/C=C/c5ccccc5)cc4)c4cccc(C)c4)cc3)cc2)c1` [HT-B, reference compound], the “solubility in a solvent used for photosensitive layer formation (in words)” value is “poor solubility” and the Solubility turned out to be 7%.

`Cc1ccccc1N(c1ccc(/C=C/C=C/c2ccccc2)cc1)c1ccc(-c2ccc(N(c3ccc(/C=C/C=C/c4ccccc4)cc3)c3ccccc3C)cc2)cc1` [HT-3] had a Solubility of 14%.

`CCc1cccc(C)c1N(c1ccc(/C=C/C=C/c2ccc(C)cc2)cc1)c1ccc(-c2ccc(N(c3ccc(/C=C/C=C/c4ccc(C)cc4)cc3)c3c(C)cccc3CC)cc2)cc1` [HT-2] displayed a Solubility of 12%.

In the case of `CCc1cccc(OC)c1N(c1ccc(/C=C/C=C/c2ccc(C)cc2)cc1)c1ccc(-c2ccc(N(c3ccc(/C=C/C=C/c4ccc(C)cc4)cc3)c3c(CC)cccc3OC)cc2)cc1` [HT-4], the Solubility came out at 20%.

The record behind these values is patent publication US9684253B2, “Triphenylamine derivative, electrophotographic photosensitive member, and image forming apparatus” (KYOCERA Document Solutions Inc., priority 2014, dated 2017).
